Measurements: patent US20260297101A1 (AbbVie Inc., priority 2015, published 2026)

Columns and labels:
[1] = Multiple-dose escalation pharmacokinetics in healthy subjects (Study 2-Part 1); conditions: 24 mg BID IR, Day 14, from Cmax to Ctrough ratio, harmonic mean ± pseudo-SD, 20160 min
[2] = QD ER tablet
[3] = Solubility of upadacitinib in different aqueous media at 37 °C; conditions: low pH
clinical = conditions: human, in vivo, po, functional half-life (t1/2), BID IR oral solution

Row | t1/2F (functional half-life) [1] | time to maximum upadacitinib concentration (Tmax) [2] | solubility [3] | half-life (clinical) | Compound
1 | 3.3 ± 0.4 h |  |  |  | CC[C@@H]1CN(C(=O)NCC(F)(F)F)C[C@@H]1c1cnc2cnc3[nH]ccc3n12 [Compound 1, (3S,4R)-3-ethyl-4-(3H-imidazo[1,2-a]pyrrolo[2,3-e]pyrazin-8-yl)-N-(2,2,2-trifluoroethyl) pyrrolidine-1-carboxamide]
2 |  | approximately 3 hours | good solubility at low pH | ~2 h | CC[C@@H]1CN(C(=O)NCC(F)(F)F)C[C@@H]1c1cnc2cnc3[nH]ccc3n12 [upadacitinib, (3S,4R)-3-ETHYL-4-(3H-IMIDAZO[1,2-a]PYRROLO[2,3-e]-PYRAZIN-8-YL)-N-(2,2,2-TRIFLUOROETHYL)PYRROLIDINE-1-CARBOXAMIDE]
